Paper PMC12472749, “Balsalazide-Derived Heterotriaryls as Sirtuin 5 Inhibitors: A Case Study of a Reversible Covalent Inhibition Strategy” (Molecules, 2025)
“And” between values parts separate entries of the source, which are not always exact repeats. Identical values can stand only once.

system: sirtuin 5; experiment: not given; details: Figure 1, high-throughput screening hits; read-out: IC50 (published sirtuin 5 inhibitor); cited from earlier work

Question: Which IC50 does the source give for `O=C1c2c(O)cccc2Cc2cccc(O)c21` [Anthralin, anthralin] here?
Answer: The IC50 was 0.1 µM.

Question: Which IC50 does the source give for `O=C(O)CCNC(=O)c1ccc(/N=N/c2ccc(O)c(C(=O)O)c2)cc1` [Balsalazide, balsalazide] here?
Answer: The IC50 was 3.9 µM.

Question: Which IC50 does the source give for `C=C1c2cccc(O)c2C(=O)C2=C(O)[C@]3(O)C(=O)C(C(N)=O)=C(O)[C@@H](N(C)C)[C@@H]3[C@@H](O)[C@H]12` [Methacycline, methacycline] here?
Answer: Its IC50 is 3.6 µM.

same assay, conditions: Figure 1; read-out: IC50 (published sirtuin 5 inhibitor); cited from earlier work

Question: For `O=c1[nH]c(=S)[nH]c(-c2ccccc2)c1Cc1c(O)ccc2ccccc12` [Cambinol, cambinol], which IC50 is on record?
Answer: The IC50 was 43 µM.

Question: For `O=C1Nc2ccc(I)cc2/C1=C/c1cc(Br)c(O)c(Br)c1` [GW5074], which IC50 is on record?
Answer: The IC50 was 20 µM.

Question: With `N#C/C(=C\c1ccc(-c2ccc(C(=O)O)cc2)o1)C(=O)Nc1ccc(C#N)c(F)c1` [Liu compound 37] as the molecule, how does the IC50 read?
Answer: The IC50 was 5.6 µM.

Question: With `C=CCN1C(=O)/C(=C\c2ccc(-c3cccc(Cl)c3Cl)o2)C(=O)NC1=S` [Maurer compound 2] as the molecule, how does the IC50 read?
Answer: The IC50 was 2.3 µM.

same assay, conditions: published values of the lead structures; read-out: IC50 (published values of lead structures); cited from earlier work

Question: Which IC50 does the source give for `O=C(O)CCNC(=O)c1ccc(-c2cc(-c3ccc(O)c(C(=O)O)c3)no2)cc1` [CG_209] here?
Answer: The IC50 was 12 µM.

Question: With `O=C(O)CCNC(=O)c1ccc(-c2cn(-c3ccc(O)c(C(=O)O)c3)nn2)cc1` [CG_220] as the molecule, how does the IC50 read?
Answer: Its IC50 is 7 µM and 7.4 µM.

molecular target: T1, hSirt5 (Homo sapiens, UniProt Q9NXA8); experiment: fluorescence-based sirtuin 5 assay (Reaction Biology) with substrate Ac-Lys-succ-AMC and NAD+; type: biochemical; details: recombinant sirtuin 5 aa 37-310, 50 µM Ac-Lys-succ-AMC, 10-dose 3-fold dilution, mean of three measurements; read-out: IC50 (hSirt5) [µM] ± SD
T1 construct: comprised amino acids 37–310 (C-terminal region); His-tag (N); purchased Reaction Biology Corporation (Malvern, PA, USA); host or cells: Escherichia coli
T1 sequence (Q9NXA8 37-310): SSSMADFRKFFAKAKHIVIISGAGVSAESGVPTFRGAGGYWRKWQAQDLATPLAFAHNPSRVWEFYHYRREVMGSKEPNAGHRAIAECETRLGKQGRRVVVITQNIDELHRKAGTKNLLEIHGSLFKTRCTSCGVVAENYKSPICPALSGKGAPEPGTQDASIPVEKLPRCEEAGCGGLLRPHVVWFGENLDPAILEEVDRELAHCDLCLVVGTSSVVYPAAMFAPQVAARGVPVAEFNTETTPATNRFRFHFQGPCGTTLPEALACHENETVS
Method: The synthesized cyclic boronate, cyanomethyl and formylmethyl derivatives of CG_209 and CG_220 were tested for their inhibitory effects against sirtuin 5 using a fluorescence-based assay utilizing a 7-amino-4-methyl coumarin-based succinylated lysine as its substrate. The IC50 values of these compounds were calculated as a mean of three measurements (Table 2). […] Significant loss in the potency of the boronates 51–54 could be observed compared to their lead structures CG_209 and CG_220.
The inhibitory activities of the synthesized target compounds were determined by Reaction Biology Corporation (Malvern, PA, USA) using a fluorescence-based assay. The sirtuin 5 enzyme utilized in this assay was produced in-house by Reaction Biology. The enzyme construct (accession number: NM_012241) comprised amino acids 37–310 (C-terminal region), carried an N-terminal His-tag and was expressed in Escherichia coli. The recombinant protein was purified to >95% purity, as confirmed by SDS-PAGE, and supplied in a solution containing 50 mM Tris-HCl (pH 8.0), 137 mM NaCl, 2.7 mM KCl, 1 mM MgCl2, 1 mg/mL BSA, and 1% DMSO with a protein concentration of 19 nM. Test compounds were prepared at a concentration of 10 mM in DMSO and incubated with 5 µL sirtuin 5 in the assay buffer per well at 30 °C for 10 min in a concentration range between 5 nM and 0.1 mM. 5 µL assay buffer without sirtuin 5 were used for control wells. The deacylation reaction was initiated by the addition of 5 µL substrate mixture comprising 50 µM fluorogenic substrate Ac-Lys-succ-AMC and the co-factor NAD^+. After a 2 h incubation at 30 °C, the reaction was terminated by adding 10 µL protease-based developer with 4 mM nicotinamide, which cleaves 7-amino-4-methylcoumarin to yield a fluorescent signal. Fluorescence was measured after an additional 1 h incubation at 30 °C, with excitation/emission wavelengths of 360/460 nm with EnVision® Plate Reader (Revvity, Waltham, MA, USA). To standardize results, a no-inhibitor control representing 100% enzyme activity was included in all assays. IC50 values for sirtuin 5 inhibition were determined in triplicate using a 10-dose, 3-fold serial dilution series. For each replicate, individual IC50 values were calculated by fitting sigmoidal dose–response curves using Prism 8.0.2 software (GraphPad Software, Boston, MA, USA). The final IC50 values are reported as the mean ± standard deviation of the triplicate measurements.

Question: Which IC50 does the source give for `O=C(O)CCNC(=O)c1ccc(-c2cc(-c3ccc(O)c(C(=O)O)c3)no2)cc1` [CG_209] here?
Answer: The IC50 was 11 ± 1 µM.

Question: Which IC50 does the source give for `O=C(O)CCNC(=O)c1ccc(-c2cn(-c3ccc(O)c(C(=O)O)c3)nn2)cc1` [CG_220] here?
Answer: Its IC50 is 9 ± 2 µM.

Question: With `N#CC[C@H](CC(=O)O)NC(=O)c1ccc(-c2cc(-c3ccc(O)c(C(=O)O)c3)no2)cc1` [Compound 47, (R)-5-(5-(4-((1-Carboxy-3-cyanopropan-2-yl)carbamoyl)phenyl)isoxazol-3-yl)-2-hydroxybenzoic acid] as the molecule, how does the IC50 read?
Answer: The IC50 was 97 ± 22 µM.

Question: With `N#CC[C@@H](CC(=O)O)NC(=O)c1ccc(-c2cc(-c3ccc(O)c(C(=O)O)c3)no2)cc1` [Compound 48, (S)-5-(5-(4-((1-Carboxy-3-cyanopropan-2-yl)carbamoyl)phenyl)isoxazol-3-yl)-2-hydroxybenzoic acid] as the molecule, how does the IC50 read?
Answer: The IC50 was 65 ± 15 µM.

Question: Which IC50 does the source give for `N#CC[C@H](CC(=O)O)NC(=O)c1ccc(-c2cn(-c3ccc(O)c(C(=O)O)c3)nn2)cc1` [Compound 49, (R)-5-(4-(4-((1-Carboxy-3-cyanopropan-2-yl)carbamoyl)phenyl)-1H-1,2,3-triazol-1-yl)-2-hydroxybenzoic acid] here?
Answer: Its IC50 is 35 ± 6 µM.

Question: Which IC50 does the source give for `N#CC[C@@H](CC(=O)O)NC(=O)c1ccc(-c2cn(-c3ccc(O)c(C(=O)O)c3)nn2)cc1` [Compound 50, (S)-5-(4-(4-((1-Carboxy-3-cyanopropan-2-yl)carbamoyl)phenyl)-1H-1,2,3-triazol-1-yl)-2-hydroxybenzoic acid] here?
Answer: The IC50 was 27 ± 9 µM.

Question: With `CC1(C)OC(=O)c2cc(-c3cc(-c4ccc(C5=N[C@@H](CC(=O)O)CB(O)O5)cc4)on3)ccc2O1` [Compound 51, (R)-2-(6-(4-(3-(2,2-Dimethyl-4-oxo-4H-benzo[d][1,3]dioxin-6-yl)isoxazol-5-yl)phenyl)-2-hydroxy-3,4-dihydro-2H-1,5,2-oxazaborinin-4-yl)acetic acid] as the molecule, how does the IC50 read?
Answer: Its IC50 is 203 ± 50 µM.

Question: Which IC50 does the source give for `CC1(C)OC(=O)c2cc(-c3cc(-c4ccc(C5=N[C@H](CC(=O)O)CB(O)O5)cc4)on3)ccc2O1` [Compound 52, (S)-2-(6-(4-(3-(2,2-Dimethyl-4-oxo-4H-benzo[d][1,3]dioxin-6-yl)isoxazol-5-yl)phenyl)-2-hydroxy-3,4-dihydro-2H-1,5,2-oxazaborinin-4-yl)acetic acid] here?
Answer: Its IC50 is 139 ± 18 µM.

Question: With `CC1(C)OC(=O)c2cc(-n3cc(-c4ccc(C5=N[C@@H](CC(=O)O)CB(O)O5)cc4)nn3)ccc2O1` [Compound 53, (R)-2-(6-(4-(1-(2,2-Dimethyl-4-oxo-4H-benzo[d][1,3]dioxin-6-yl)-1H-1,2,3-triazol-4-yl)phenyl)-2-hydroxy-3,4-dihydro-2H-1,5,2-oxazaborinin-4-yl)acetic acid] as the molecule, how does the IC50 read?
Answer: The IC50 was 137 ± 63 µM.

Question: For `CC1(C)OC(=O)c2cc(-n3cc(-c4ccc(C5=N[C@H](CC(=O)O)CB(O)O5)cc4)nn3)ccc2O1` [Compound 54, (S)-2-(6-(4-(1-(2,2-Dimethyl-4-oxo-4H-benzo[d][1,3]dioxin-6-yl)-1H-1,2,3-triazol-4-yl)phenyl)-2-hydroxy-3,4-dihydro-2H-1,5,2-oxazaborinin-4-yl)acetic acid], which IC50 is on record?
Answer: Its IC50 is 61 ± 9 µM.

Question: Which IC50 does the source give for `O=CCC(CC(=O)O)NC(=O)c1ccc(-c2cc(-c3ccc(O)c(C(=O)O)c3)no2)cc1` (stereo not drawn) [Compound 61, 5-(5-(4-((1-Carboxy-4-oxobutan-2-yl)carbamoyl)phenyl)isoxazol-3-yl)-2-hydroxybenzoic acid] here?
Answer: The IC50 was 82 ± 3 µM.

Question: For `O=CCC(CC(=O)O)NC(=O)c1ccc(-c2cn(-c3ccc(O)c(C(=O)O)c3)nn2)cc1` (stereo not drawn) [Compound 64, 5-(4-(4-((1-Carboxy-4-oxobutan-2-yl)carbamoyl)phenyl)-1H-1,2,3-triazol-1-yl)-2-hydroxybenzoic acid], which IC50 is on record?
Answer: The IC50 was 60 ± 15 µM.
